Experiments:
[1] = tested on: mast cells; details: concentrations higher than those with antihistaminic / stabilizing activity; cited from earlier work
[2] = Surface Activity Rating: change in surface pressure of SOPC monolayer in Langmuir trough; type: physicochemical; details: initial surface pressure 30 mN/m, 24° C.
Source text: The Surface Activity Rating is obtained by determining the interaction of an amphipathic anti-allergy drug (“test compound”) in buffer alone with a phospholipid monolayer. Test compound/mast cell membrane interaction is mimicked in a phospholipid monolayer spread onto an aqueous buffer in a modified Langmuir trough. In this system, test compound-membrane interaction is quantified by determining the change in surface pressure (Δπ in mN/m) of a monomolecular film of 1-stearoyl-2-oleoyl-sn-glycero-3-phosphocholine (SOPC) spread at an initial surface pressure of 28-32 mN/m on an aqueous buffer sub-phase. The initial surface pressure of 28-32 mN/m is chosen because this pressure mimics that of most mammalian cell membranes. […]
Surface pressure is measured using an automated interfacial monitor-controller built around a Cahn 27 electrobalance equipped with a 24 ga. nichrome wire Wilhelmy probe. […]
The effect of test compound on surface pressure is determined by a continuous exchange of the aqueous phase with a concentrated solution of the test compound in buffer. […] The concentration of test compound in the aqueous phase is determined from the fraction of sub-phase volume exchanged and the concentration of the solute in the concentrated solution. […]

[3] = tested on: human conjunctival mast cells; details: purified preparations of human conjunctival mast cells; Yanni et al. 1996; cited from earlier work

Row | SMILES | effect on histamine release from mast cells as a function of concentration [1] | increase in surface pressure (Surface Activity Rating) ([2]; pH 7.5, concentration range of 0-3.5 mM) | effect on histamine release as a function of concentration [3] | increase in surface pressure (Surface Activity Rating) ([2]; pH 7.5, concentration in aqueous sub-phase increased from 0 to 5 mM)
1 | O=C(O)c1cc(=O)c2c(OCC(O)COc3cccc4oc(C(=O)O)cc(=O)c34)cccc2o1 [cromolyn sodium] | biphasic behavior | – | – | –
2 | CN1CCC(=C2c3ccccc3CC(=O)c3sccc32)CC1 [ketotifen, 4,9-dihydro-4-(1-methyl-4-piperidinyl-idene)-10H-benzo[4,5]cyclohepta-[1,2-b]thiophen-10-one] | – | 15 mN/m | biphasic behavior | –
3 | CN(C)CC/C=C1/c2ccccc2COc2ccc(CC(=O)O)cc21 [olopatadine, Z-11-(3-dimethylaminopropylidene)-6,11-dihydrodibenz[b,e]oxepin-2-acetic acid] | does not provoke a release of histamine from mast cells | – | – | 7.1 mN/m

Reference: patent publication US6420399B1, “Topical ophthalmic mast cell stabilizers for treating allergic eye disease” (Alcon Manufacturing, Ltd., priority 1999, dated 2002)
